Measured values: patent US20010039275A1, “Use of 2,4-diaminothiazole derivatives” (priority 2000, published 2001)

First: Cc1cc(C(=O)c2sc(Nc3ccccc3)nc2N)ccc1Cl [Example 28, (4-amino-2-phenylaminothiazol-5-yl)-(4-chloro-3-methylphenyl)methanone]
Second: Nc1nc(Nc2ccccc2)sc1C(=O)c1ccc(Cl)c(Cl)c1 [Example 18, (4-Amino-2-phenylaminothiazol-5-yl)-(3,4-dichlorophenyl)methanone]
The melting point of the first is lower: 173 to 175 °C for the first, 195 to 198 °C for the second.

First: Nc1nc(Nc2ccccc2)sc1C(=O)c1cccc(OCc2ccccc2)c1 [Example 16, (4-Amino-2-phenylaminothiazol-5-yl)-(3-benzyloxyphenyl)methanone]
Second: Nc1nc(Nc2ccc(Cl)cc2)sc1C(=O)c1cccc(OCc2ccccc2)c1 [Example 54, [4-Amino-2-(4-chlorophenylamino)thiazol-5-yl]-(3-benzyloxyphenyl)methanone]
The melting point of the first is lower: 121 to 124 °C for the first, 173 to 174 °C for the second.

`COc1ccc(C(=O)c2sc(Nc3ccccc3)nc2N)c(OC)c1` [Example 30, (4-Amino-2-phenylaminothiazol-5-yl)-(2,4-dimethoxyphenyl)methanone] and `COc1ccccc1C(=O)c1sc(Nc2ccccc2)nc1N` [Example 22, (4-Amino-2-phenylaminothiazol-5-yl)-(2-methoxyphenvl)methanone] cannot be ordered by melting point: 196 to 198 °C for the first, 196 to 200 °C for the second.

Compared with `Nc1nc(Nc2ccccc2)sc1C(=O)c1ccc(F)c(F)c1` [Example 12, (4-Amino-2-phenylaminothiazol-5-yl)-(3,4-difluorophenyl)methanone], `Nc1nc(Nc2ccccc2)sc1C(=O)c1cccc(F)c1` [Example 13, (4-Amino-2-phenylaminothiazol-5-yl)-(3-fluorophenyl)methanone] is lower in melting point: 178 to 180 °C for the first, 161 to 164 °C for the second.

Compared with `Nc1nc(Nc2ccc(Br)cc2)sc1C(=O)C1CC1` [Example 17, [4-Amino-2-(4-bromophenylamino)thiazol-5-yl]cyclopropylmethanone], `CCC(=O)c1sc(Nc2ccccc2)nc1N` [Example 11, 1-(4-Amino-2-phenylaminothiazol-5-yl)propan-1-one] is lower in melting point: 204 to 206 °C for the first, 136 to 139 °C for the second.

First: Nc1nc(Nc2ccccc2)sc1C(=O)Nc1ccccc1 [Example 45, 4-Amino-2-phenylaminothiazole-5-carboxylic acid phenylamide]
Second: Nc1nc(Nc2ccccc2)sc1C(=O)c1csc2ccccc12 [Example 40, (4-Amino-2-phenylaminothiazol-5-yl)-benzofblthiophen-3-yl-methanone]
The melting point of the first is lower: 75 °C for the first, 211 to 212 °C for the second.

First: Cc1c(C(=O)c2sc(Nc3ccccc3)nc2N)sc2ccccc12 [Example 19, (4-Amino-2-phenylaminothiazol-5-yl)-(3-methylbenzo[b]thiophen-2-yl) methanone]
Second: Nc1nc(Nc2ccccc2)sc1C(=O)c1ccccc1[N+](=O)[O-] [Example 25, (4-Amino-2-phenylaminothiazol-5-yl)-(2-nitrophenyl)methanone]
The melting point of the first is higher: 165 to 167 °C for the first, 117 to 119 °C for the second.

Compared with `Nc1nc(Nc2ccccc2)sc1C(=O)c1ccc(C(F)(F)F)cc1` [Example 6, (4-Amino-2-phenylaminothiazol-5-yl)-(4-trifluoromethylphenyl)methanone], `Nc1nc(Nc2ccccc2)sc1C(=O)c1ccc(OC(F)(F)F)cc1` [Example 8, (4-Amino-2-phenylaminothiazol-5-yl)-(4-trifluoromethoxyphenyl)methanone] is lower in melting point: 201 to 205 °C for the first, 170 to 173 °C for the second.

Compared with `Nc1nc(Nc2ccccc2)sc1C(=O)c1ccc2ccccc2c1` [Example 14, (4-Amino-2-phenylaminothiazol-5-yl)naphthalen-2-ylmethanone], `Nc1nc(Nc2ccccc2)sc1C(=O)c1ccc(-c2ccccc2)cc1` [Example 15, (4-Amino-2-phenylaminothiazol-5-yl)biphenyl-4-ylmethanone] is lower in melting point: 227 to 229 °C for the first, 224 to 225 °C for the second.

First: Nc1nc(Nc2ccccc2)sc1C(=O)c1ccc([N+](=O)[O-])cc1 [Example 27, (4-Amino-2-phenylaminothiazol-5-yl)-(4-nitrophenyl)methanone]
Second: Nc1nc(Nc2ccccc2)sc1-c1ccc([N+](=O)[O-])cc1 [Example 20, 4-Amino-2-phenylamino-5-(4-nitrophenyl)thiazole]
The melting point of the first is lower: 206 to 208 °C for the first, 217 to 219 °C for the second.

Compared with `COc1cccc(C(=O)c2sc(Nc3ccccc3)nc2N)c1` [Example 23, (4-Amino-2-phenylaminothiazol-5-yl)-(3-methoxyphenyl)methanone], `Nc1nc(Nc2ccccc2)sc1C(=O)c1ccc(O)c(O)c1` [Example 29, (4-Amino-2-phenylaminothiazol-5-yl)-(3,4-dihydroxyphenyl)methanone] is higher in melting point: 174 to 175 °C for the first, 222 to 224 °C for the second.

Compared with `Nc1nc(Nc2ccccc2)sc1C(=O)N1CCOCC1` [Example 49, (4-Amino-2-phenylaminothiazol-5-yl)morpholin-4-ylmethanone], `COC(=O)c1sc(Nc2ccccc2)nc1N` [Example 38, 4-Amino-2-phenylaminothiazole-5-carboxylic acid methyl ester] is lower in melting point: 212 to 213 °C for the first, 173 to 174 °C for the second.

First: Cc1cc(C)c(C(=O)c2sc(Nc3ccccc3)nc2N)c(C)c1 [Example 35, (4-Amino-2-phenylaminothiazol-5-yl)-(2,4,6-trimethylphenyl)methanone]
Second: COc1cccc(OC)c1C(=O)c1sc(Nc2ccccc2)nc1N [Example 37, (4-Amino-2-phenylaminothiazol-5-yl)-(2,6-dimethoxyphenyl)methanone]
The melting point of the first is lower: 198 to 200 °C for the first, 224 to 226 °C for the second.

First: Nc1nc(Nc2ccccc2)sc1C(=O)c1c(Cl)cccc1Cl [Example 42, (4-Amino-2-phenylaminothiazol-5-yl)-(2,6-dichlorophenyl)methanone]
Second: Nc1nc(Nc2ccccc2)sc1C(=O)c1ccc(Cl)s1 [Example 21, (4-Amino-2-phenylaminothiazol-5-yl)-(5-chlorothiophen-2-yl)methanone]
The melting point of the first is higher: 245 to 246 °C for the first, 167 to 169 °C for the second.

First: CON(C)C(=O)c1sc(Nc2ccccc2)nc1N [Example 46, 4-Amino-2-phenyiaminothiazole-5-carboxylic acid methoxymethylamide]
Second: CCN(CC)c1ccc(C(=O)c2sc(Nc3ccccc3)nc2N)cc1 [Example 7, (4-Amino-2-phenylaminothiazol-5-yl)-(4-diethylaminophenyl)methanone]
The melting point of the first is lower: 152 to 153 °C for the first, 214 to 216 °C for the second.

Work on `CCCNc1nc(N)c(C(=O)c2cccnc2)s1` [Example 32, (4-Amino-2-propylaminothiazol-5-yl)pyridin-3-yl-methanone] yielded a melting point of 205 to 206 °C.
